Patent US8952024B2, “Herbicidal pyrimidone derivatives” (E I du Pont de Nemours and Company, priority 2009, dated 2015)

Experiments:
Type in all cases: in vivo
[1] = tested on: barnyardgrass (Echinochloa crus-galli); experiment: Test A pre-/postemergence plant response
In short: (§1)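 Seeds planted in loam soil/sand blend; test chemicals in non-phytotoxic solvent mixture with surfactant applied as directed soil spray preemergence and, concurrently, postemergence to plants 2–10 cm tall at one- to two-leaf stage. Greenhouse ~10 days; visual injury vs untreated controls, 0 (no effect) to 100 (complete control).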

[2] = tested on: corn (Zea mays); experiment: Test A pre-/postemergence plant response
In short: as §1

[3] = tested on: giant foxtail (Setaria faberii); experiment: Test A pre-/postemergence plant response
In short: as §1

[4] = tested on: large crabgrass (Digitaria sanguinalis); experiment: Test A pre-/postemergence plant response
In short: as §1

[5] = tested on: morningglory (Ipomoea spp.); experiment: Test A pre-/postemergence plant response
In short: as §1

[6] = tested on: pigweed (Amaranthus retroflexus); experiment: Test A pre-/postemergence plant response
In short: as §1

[7] = tested on: velvetleaf (Abutilon theophrasti); experiment: Test A pre-/postemergence plant response
In short: as §1

[8] = tested on: wheat (Triticum aestivum); experiment: Test A pre-/postemergence plant response
In short: as §1

[9] = tested on: winter barley (Hordeum vulgare); experiment: Test B postemergence plant response; conditions: for Barley plant response rating (0 to 100 scale): 62 g ai/ha, 0 is no effect
In short: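 Plants at the 1- to 4-leaf stage (2 to 18 cm tall), grown in pots of peat moss/vermiculite medium with wetting agent and starter nutrients, received postemergence applications of test chemicals. After 13 to 15 days in a greenhouse, injury was rated visually against untreated controls on a 0 (no effect) to 100 (complete control) scale.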

[10] = tested on: barnyardgrass (Echinochloa crus-galli); experiment: Test B flooded paddy test; conditions: for Plant response rating, Flood, Barnyardgrass: 250 g ai/ha, flooded paddy test, visual rating on 0 to 100 scale (0 no effect, 100 complete control) after 13 to 15 days; for Plant response rating, Barnyardgrass: Flood (flooded paddy test), 13 to 15 days; for Barnyardgrass plant response rating: Flood, 31 g ai/ha, scale 0 to 100 (0 no effect, 100 complete control)
In short: (§2)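 Rice, umbrella sedge, ducksalad and barnyardgrass were grown to the 2-leaf stage, flooded to 3 cm, and compound was applied directly to the paddy water, with that depth kept throughout. After 13 to 15 days in the greenhouse, plants were visually rated against controls on a 0 (no effect) to 100 (complete control) scale.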

[11] = tested on: ducksalad (Heteranthera limosa); experiment: Test B flooded paddy test; conditions: for Plant response rating, Flood, Ducksalad: 250 g ai/ha, flooded paddy test, visual rating on 0 to 100 scale (0 no effect, 100 complete control) after 13 to 15 days; for Plant response rating, Ducksalad: Flood (flooded paddy test), 13 to 15 days; for Ducksalad plant response rating: Flood, 31 g ai/ha, scale 0 to 100 (0 no effect, 100 complete control)
In short: as §2

[12] = tested on: rice (Oryza sativa); experiment: Test B flooded paddy test; conditions: for Plant response rating, Flood, Rice: 250 g ai/ha, flooded paddy test, visual rating on 0 to 100 scale (0 no effect, 100 complete control) after 13 to 15 days; for Plant response rating, Rice: Flood (flooded paddy test), 13 to 15 days; for Rice plant response rating: Flood, 31 g ai/ha, scale 0 to 100 (0 no effect, 100 complete control)
In short: as §2

[13] = tested on: umbrella sedge (Cyperus difformis); experiment: Test B flooded paddy test; conditions: for Plant response rating, Flood, Sedge, Umbrella: 250 g ai/ha, flooded paddy test, visual rating on 0 to 100 scale (0 no effect, 100 complete control) after 13 to 15 days; for Plant response rating, Sedge, Umbrella: Flood (flooded paddy test), 13 to 15 days; for Sedge, Umbrella plant response rating: Flood, 31 g ai/ha, scale 0 to 100 (0 no effect, 100 complete control)
In short: as §2

[14] = Postemergence, 125 g ai/ha, 0 to 100 scale where 0 is no effect and 100 is complete control
[15] = Postemergence, 500 g ai/ha, 0 to 100 scale, 0 = no effect, 100 = complete control, approx. ten days
[16] = Preemergence, 125 g ai/ha, 0 to 100 scale, 0 = no effect, 100 = complete control
[17] = Preemergence, 500 g ai/ha, visual injury, 0 to 100 scale (0 no effect, 100 complete control), approx. ten days
[18] = postemergence, 100 is complete control, 13 to 15 days
[19] = Postemergence, 250 g ai/ha, scale 0 to 100 (0 no effect, 100 complete control)
[20] = 62 g ai/ha, scale of 0 to 100 where 0 is no effect and 100 is complete control
[21] = 125 g ai/ha, scale 0 to 100, 0 is no effect, 100 is complete control
[22] = Preemergence, 500 g ai/ha, 0 to 100 scale, 0 = no effect, 100 = complete control
[23] = Postemergence, 125 g ai/ha, scale 0 to 100 (0 no effect, 100 complete control)

CCCCCn1c(-c2ccccc2)ncc(C(=O)C2=C(O)CCCC2=O)c1=O [Compound 89]
Plant response rating, Barnyardgrass [1, 14]: 90
Plant response rating, Barnyardgrass [1, 15]: 90
Plant response rating, Barnyardgrass [1, 16]: 20
Plant response rating, Barnyardgrass [1, 17]: 80
Plant response rating, Corn [2, 14]: 0
Plant response rating, Corn [2, 15]: 10
Plant response rating, Corn [2, 16]: 0
Plant response rating, Corn [2, 17]: 0
Plant response rating, Foxtail, Giant [3, 14]: 60
Plant response rating, Foxtail, Giant [3, 15]: 90
Plant response rating, Foxtail, Giant [3, 16]: 20
Plant response rating, Foxtail, Giant [3, 17]: 70
Plant response rating, Crabgrass, Large [4, 14]: 90
Plant response rating, Crabgrass, Large [4, 15]: 100
Plant response rating, Crabgrass, Large [4, 16]: 60
Plant response rating, Crabgrass, Large [4, 17]: 90
Plant response rating, Morningglory [5, 14]: 100
Plant response rating, Morningglory [5, 15]: 100
Plant response rating, Morningglory [5, 16]: 0
Plant response rating, Morningglory [5, 17]: 70
Plant response rating, Pigweed [6, 14]: 100
Plant response rating, Pigweed [6, 15]: 100
Plant response rating, Pigweed [6, 16]: 90
Plant response rating, Pigweed [6, 17]: 100
Plant response rating, Velvetleaf [7, 14]: 100
Plant response rating, Velvetleaf [7, 15]: 100
Plant response rating, Velvetleaf [7, 16]: 70
Plant response rating, Velvetleaf [7, 17]: 100
Plant response rating, Wheat [8, 14]: 0
Plant response rating, Wheat [8, 15]: 20
Plant response rating, Wheat [8, 16]: 0
Plant response rating, Wheat [8, 17]: 30
Plant response rating, Barley ([9]; 31 g ai/ha, postemergence, scale 0 to 100, 0 is no effect, 100 is complete control): 0
Barley plant response rating (0 to 100 scale) [9, 18]: 5
Plant response rating, Barley ([9]; Postemergence, 125 g ai/ha, visual rating after 13 to 15 days, scale 0 (no effect) to 100 (complete control)): 10
Plant response rating, Barley [9, 19]: 20
Plant response rating, Flood, Barnyardgrass [10]: 40
Plant response rating, Barnyardgrass [10, 20]: 20
Plant response rating, Barnyardgrass [10, 21]: 30
Barnyardgrass plant response rating [10]: 20
Plant response rating, Flood, Ducksalad [11]: 100
Plant response rating, Ducksalad [11, 20]: 90
Plant response rating, Ducksalad [11, 21]: 100
Ducksalad plant response rating [11]: 45
Plant response rating, Flood, Rice [12]: 15
Plant response rating, Rice [12, 20]: 0
Plant response rating, Rice [12, 21]: 0
Rice plant response rating [12]: 0
Plant response rating, Flood, Sedge, Umbrella [13]: 85
Plant response rating, Sedge, Umbrella [13, 20]: 85
Plant response rating, Sedge, Umbrella [13, 21]: 85
Sedge, Umbrella plant response rating [13]: 30

CCCCn1c(-c2cccc(Cl)c2)ncc(C(=O)C2=C(O)CCCC2=O)c1=O [Compound 146]
Plant response rating, Barnyardgrass [1, 14]: 100
Plant response rating, Barnyardgrass [1, 15]: 100
Plant response rating, Barnyardgrass [1, 16]: 60
Plant response rating, Barnyardgrass [1, 17]: 100
Plant response rating, Corn [2, 14]: 20
Plant response rating, Corn [2, 15]: 30
Plant response rating, Corn [2, 16]: 0
Plant response rating, Corn [2, 17]: 30
Plant response rating, Foxtail, Giant [3, 14]: 70
Plant response rating, Foxtail, Giant [3, 15]: 90
Plant response rating, Foxtail, Giant [3, 16]: 30
Plant response rating, Foxtail, Giant [3, 17]: 90
Plant response rating, Crabgrass, Large [4, 14]: 80
Plant response rating, Crabgrass, Large [4, 15]: 90
Plant response rating, Crabgrass, Large [4, 16]: 60
Plant response rating, Crabgrass, Large [4, 17]: 100
Plant response rating, Morningglory [5, 14]: 90
Plant response rating, Morningglory [5, 15]: 90
Plant response rating, Morningglory [5, 16]: 10
Plant response rating, Pigweed [6, 14]: 100
Plant response rating, Pigweed [6, 15]: 100
Plant response rating, Pigweed [6, 16]: 70
Plant response rating, Pigweed [6, 17]: 100
Plant response rating, Velvetleaf [7, 14]: 100
Plant response rating, Velvetleaf [7, 15]: 100
Plant response rating, Velvetleaf [7, 16]: 70
Plant response rating, Velvetleaf [7, 22]: 100
Plant response rating, Wheat [8, 14]: 20
Plant response rating, Wheat [8, 15]: 50
Plant response rating, Wheat [8, 16]: 0
Plant response rating, Wheat [8, 22]: 40
Barley plant response rating (0 to 100 scale) [9, 18]: 0
Plant response rating, Barley ([9]; Postemergence, 31 g ai/ha, 0 to 100 scale (0 no effect, 100 complete control)): 0
Plant response rating, Barley [9, 23]: 15
Plant response rating, Barley ([9]; Postemergence, 250 g ai/ha, scale 0 to 100 (0 no effect, 100 complete control), 13 to 15 days): 30
Plant response rating, Flood, Barnyardgrass [10]: 30
Plant response rating, Barnyardgrass [10, 20]: 0
Plant response rating, Barnyardgrass [10, 21]: 0
Barnyardgrass plant response rating [10]: 0
Plant response rating, Flood, Ducksalad [11]: 100
Plant response rating, Ducksalad [11, 20]: 60
Plant response rating, Ducksalad [11, 21]: 80
Ducksalad plant response rating [11]: 0
Plant response rating, Flood, Rice [12]: 35
Plant response rating, Rice [12, 20]: 0
Plant response rating, Rice [12, 21]: 0
Rice plant response rating [12]: 0
Plant response rating, Flood, Sedge, Umbrella [13]: 90
Plant response rating, Sedge, Umbrella [13, 20]: 50
Plant response rating, Sedge, Umbrella [13, 21]: 80
Sedge, Umbrella plant response rating [13]: 0

COCCCn1c(-c2cc(F)cc(F)c2)ncc(C(=O)C2=C(O)CCCC2=O)c1=O [Compound 120]
Plant response rating, Barnyardgrass [1, 14]: 90
Plant response rating, Barnyardgrass [1, 15]: 90
Plant response rating, Barnyardgrass [1, 16]: 70
Plant response rating, Barnyardgrass [1, 17]: 100
Plant response rating, Corn [2, 14]: 10
Plant response rating, Corn [2, 15]: 50
Plant response rating, Corn [2, 16]: 20
Plant response rating, Corn [2, 17]: 30
Plant response rating, Foxtail, Giant [3, 14]: 80
Plant response rating, Foxtail, Giant [3, 15]: 90
Plant response rating, Foxtail, Giant [3, 16]: 90
Plant response rating, Foxtail, Giant [3, 17]: 100
Plant response rating, Crabgrass, Large [4, 14]: 90
Plant response rating, Crabgrass, Large [4, 15]: 100
Plant response rating, Crabgrass, Large [4, 16]: 100
Plant response rating, Crabgrass, Large [4, 17]: 100
Plant response rating, Morningglory [5, 14]: 100
Plant response rating, Morningglory [5, 15]: 100
Plant response rating, Morningglory [5, 16]: 30
Plant response rating, Morningglory [5, 17]: 90
Plant response rating, Pigweed [6, 14]: 90
Plant response rating, Pigweed [6, 15]: 100
Plant response rating, Pigweed [6, 16]: 100
Plant response rating, Pigweed [6, 17]: 100
Plant response rating, Velvetleaf [7, 14]: 100
Plant response rating, Velvetleaf [7, 15]: 100
Plant response rating, Velvetleaf [7, 16]: 80
Plant response rating, Velvetleaf [7, 17]: 100
Plant response rating, Wheat [8, 14]: 20
Plant response rating, Wheat [8, 15]: 70
Plant response rating, Wheat [8, 16]: 0
Plant response rating, Wheat [8, 17]: 70
Barley plant response rating (0 to 100 scale) [9, 18]: 5
Plant response rating, Barley [9, 23]: 5
Plant response rating, Barley [9, 19]: 5
Plant response rating, Flood, Barnyardgrass [10]: 65
Plant response rating, Barnyardgrass [10, 20]: 20
Plant response rating, Flood, Ducksalad [11]: 85
Plant response rating, Ducksalad [11, 20]: 30
Plant response rating, Flood, Rice [12]: 40
Plant response rating, Rice [12, 20]: 0
Plant response rating, Flood, Sedge, Umbrella [13]: 75
Plant response rating, Sedge, Umbrella [13, 20]: 40
